Among the data in patent US10246426B2, “Triazole compounds as T-type calcium channel blockers” (IDORSIA PHARMACEUTICALS LTD, priority 2014, dated 2019) are IC50 values, retold here.

The target of this assay is Cav3.2 (Homo sapiens, UniProt O95180). Kind of assay: Calcium flux FLIPR assay, HEK293 cells recombinantly expressing Cav3.2. The following applies: Cav3.2-channel, Ca2+ entry stimulated by 10 mM CaCl2. Type of assay: cell-based. As to the method: In Vitro Methods—Measurement of Calcium Channel Flux by Means of FLIPR Assays.
Cav3.2, sequence (O95180 whole entry, looked up): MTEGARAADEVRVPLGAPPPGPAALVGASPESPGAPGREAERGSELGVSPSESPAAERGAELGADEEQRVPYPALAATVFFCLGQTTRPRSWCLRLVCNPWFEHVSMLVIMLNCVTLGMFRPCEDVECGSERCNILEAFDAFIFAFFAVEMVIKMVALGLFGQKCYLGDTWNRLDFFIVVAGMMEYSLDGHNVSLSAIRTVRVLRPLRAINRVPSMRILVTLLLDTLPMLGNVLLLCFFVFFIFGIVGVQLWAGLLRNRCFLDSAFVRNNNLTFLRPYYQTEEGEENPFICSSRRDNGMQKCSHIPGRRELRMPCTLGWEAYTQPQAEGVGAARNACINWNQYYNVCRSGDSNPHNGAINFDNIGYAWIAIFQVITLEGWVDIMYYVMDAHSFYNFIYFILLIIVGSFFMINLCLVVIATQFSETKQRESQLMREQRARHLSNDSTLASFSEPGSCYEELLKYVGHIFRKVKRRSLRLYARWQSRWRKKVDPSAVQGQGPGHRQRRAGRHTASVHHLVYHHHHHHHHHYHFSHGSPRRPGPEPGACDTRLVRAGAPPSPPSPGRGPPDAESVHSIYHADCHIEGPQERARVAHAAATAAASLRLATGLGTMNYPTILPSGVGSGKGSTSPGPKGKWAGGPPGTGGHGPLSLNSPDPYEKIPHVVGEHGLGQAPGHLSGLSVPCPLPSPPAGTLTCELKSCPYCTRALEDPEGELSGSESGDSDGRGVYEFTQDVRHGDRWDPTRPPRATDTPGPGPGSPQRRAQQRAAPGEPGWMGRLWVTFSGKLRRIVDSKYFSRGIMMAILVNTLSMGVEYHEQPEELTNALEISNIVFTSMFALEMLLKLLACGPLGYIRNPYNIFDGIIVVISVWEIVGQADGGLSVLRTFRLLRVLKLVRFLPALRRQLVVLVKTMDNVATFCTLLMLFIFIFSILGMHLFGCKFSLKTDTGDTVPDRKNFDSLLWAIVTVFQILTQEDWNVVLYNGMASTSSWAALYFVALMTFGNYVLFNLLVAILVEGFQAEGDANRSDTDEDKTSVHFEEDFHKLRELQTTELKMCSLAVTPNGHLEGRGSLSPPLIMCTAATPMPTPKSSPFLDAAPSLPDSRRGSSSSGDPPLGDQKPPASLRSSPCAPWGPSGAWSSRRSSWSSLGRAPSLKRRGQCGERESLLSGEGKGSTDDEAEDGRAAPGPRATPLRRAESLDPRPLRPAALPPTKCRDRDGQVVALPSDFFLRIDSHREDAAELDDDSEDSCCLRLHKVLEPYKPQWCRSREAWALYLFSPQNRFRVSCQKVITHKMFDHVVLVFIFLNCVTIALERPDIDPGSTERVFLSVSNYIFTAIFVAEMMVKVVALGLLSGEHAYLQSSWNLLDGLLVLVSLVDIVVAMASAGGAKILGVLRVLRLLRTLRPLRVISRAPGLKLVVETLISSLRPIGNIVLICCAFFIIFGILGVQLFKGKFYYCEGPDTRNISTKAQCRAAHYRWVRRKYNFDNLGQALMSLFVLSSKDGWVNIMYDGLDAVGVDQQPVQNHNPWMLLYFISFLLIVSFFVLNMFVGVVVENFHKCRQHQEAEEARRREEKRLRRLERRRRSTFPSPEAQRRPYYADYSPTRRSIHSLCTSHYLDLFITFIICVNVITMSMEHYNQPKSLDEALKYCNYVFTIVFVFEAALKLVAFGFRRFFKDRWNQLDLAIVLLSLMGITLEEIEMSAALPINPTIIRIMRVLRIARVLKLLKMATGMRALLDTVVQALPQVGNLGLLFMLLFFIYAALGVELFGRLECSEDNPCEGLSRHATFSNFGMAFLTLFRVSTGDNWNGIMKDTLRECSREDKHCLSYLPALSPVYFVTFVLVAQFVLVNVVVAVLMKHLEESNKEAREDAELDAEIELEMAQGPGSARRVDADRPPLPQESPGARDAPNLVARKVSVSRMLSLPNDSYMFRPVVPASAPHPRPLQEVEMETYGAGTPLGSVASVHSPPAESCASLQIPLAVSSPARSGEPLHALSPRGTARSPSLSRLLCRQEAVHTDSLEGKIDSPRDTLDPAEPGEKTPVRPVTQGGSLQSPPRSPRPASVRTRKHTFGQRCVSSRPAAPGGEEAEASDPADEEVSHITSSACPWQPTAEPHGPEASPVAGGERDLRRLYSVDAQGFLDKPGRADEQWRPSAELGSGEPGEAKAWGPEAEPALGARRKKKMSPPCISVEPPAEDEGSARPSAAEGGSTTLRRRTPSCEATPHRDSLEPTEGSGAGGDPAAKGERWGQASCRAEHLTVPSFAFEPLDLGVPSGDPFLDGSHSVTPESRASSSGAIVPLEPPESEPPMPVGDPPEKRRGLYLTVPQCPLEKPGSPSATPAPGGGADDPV
HEK293 cells recombinantly expressing either voltage-dependent T-type calcium channel subunit […] (Cav3.2) or voltage-dependent L-type calcium channel subunit alpha-1C (Cav1.2) are assayed for calcium flux using the calcium indicator dye Fluo-4-AM (Molecular Devices) and FLIPR technology (Fluorometric Imaging Plate Reader, Molecular Devices) (Xie X, Van Deusen A L, Vitko I, Babu D A, Davies L A, Huynh N, Cheng H, Yang N, Barrett P Q, Perez-Reyes E. Validation of high throughput screening assays against three subtypes of Ca(v)3 T-type channels using molecular and pharmacologic approaches. Assay and Drug Development Technologies 2007, 5(2), 191-203). The HEK293 cells recombinantly expressing Cav3.2 are maintained in DMEM growth medium (Life Technologies) supplemented with 10% Fetal Bovine Serum (FBS), 100 U/ml penicilin (Life Technologies), 100 μg/ml streptomycin (Life Technologies) and 1 mg/ml G418 (Life Technologies). HEK293 cells recombinantly expressing Cav1.2 are maintained in DMEM growth medium (Life technologies) supplemented with 10% FBS, 0.1 mg/ml G418 (Life Technologies), 0.1 mg/ml hygromycin (Life Technologies) and 40 ug/ml zeocin (Life Technologies).
Cells are washed once with PBS, then dissociated in 0.25% trypsin/EDTA (Life Technologies) and seeded into poly-D-lysine coated 384-well black, clear bottom plates (BD Biosciences) at a density of 30,000 cells/well. The seeded plates are incubated overnight at 37° C.
Immediately prior to performing the assay, medium is removed and cells are treated for 1 hour at 37° C. with loading buffer containing HBSS 1× (137 mM NaCl; 5.4 mM KCl; 0.25 mM Na2HPO4; 1.3 mM CaCl2; 0.4 mM MgSO04; 0.5 mM MgCl2; 0.4 mM KH2PO4, pH 7.4), 0.375 g/L NaHCO3, 20 mM Hepes, supplemented with 3 μM Fluo-4-AM and 0.15% Pluronic (Life Technologies). The cells are then washed three times with assay buffer (HBSS 1×; 0.375 g/L NaHCO3; 20 mM Hepes; 1% FBS; pH 7.4) and allowed to rest in 50 μl of wash buffer for 30 minutes.
Stock solutions of test compounds are prepared to a concentration of 10 mM in DMSO. For the Cav3.2 assay, serial dilutions of the compounds are prepared in TEAC buffer (100 mM tetraethylammonium chloride; 20 mM Hepes; 2.5 mM CaCl2; 5 mM KCl; 1 mM MgCl2; 1% FBS; pH 7.2), for the Cav1.2 assay serial dilutions are prepared in assay buffer. […] The compounds are incubated with the cells for 3 minutes and Ca2+ entry is stimulated by adding either CaCl2 to a final concentration of 10 mM (Cav3.2 assay) or by adding KCl to a final concentration of 20 mM (Cav1.2 assay). The kinetics of fluorescence increase are recorded for every well and the area under the fluorescence trace for every compound concentration is used to generate inhibition curves using non-linear regression sigmoidal concentration-response curve analysis with in-house software. IC50 values are calculated and represent the compound concentration required to inhibit 50% of the signal that is obtained in the presence of vehicle instead of test compound.
A general note: A change in cytosolic calcium serves as a functional read-out for many receptors and channels.
What is called IC50 is the concentration needed to halve the response being measured. On to `CC(C)(C)c1ccc(CC(=O)Nc2cnn(Cc3ccc(OC(F)(F)F)cc3)n2)cc1` [Example 90, 2-(4-tert-Butyl-phenyl)-N-[2-(4-trifluoromethoxy-benzyl)-2H-[1,2,3]triazol4-yl]-acetamide], for which the half-inhibitory concentration (IC50) was found to be 200 nM.

For the compound `COc1cc(Cn2ncc(NC(=O)Cc3ccc(OCC4(C)COC4)cc3)n2)ccc1F` [Example 112, N-[2-(4-Fluoro-3-methoxy-benzyl)-2H-[1,2,3]triazol-4-yl]-2-[4-(3-methyl-oxetan-3-ylmethoxy)-phenyl]-acetamide], the half-inhibitory concentration (IC50) stood at 190 nM.

Consider `COc1c(F)cc(Cn2ncc(NC(=O)Cc3ccc(N4CCC(F)(F)C4)nc3)n2)cc1F` [Example 147, N-[2-(3,5-Difluoro-4-methoxy-benzyl)-2H-[1,2,3]triazol-4-yl]-2-[6-(3,3-difluoro-pyrrolidin-1-yl)-pyridin-3-yl]-acetamide], for which the half-inhibitory concentration (IC50) came out at 13 nM.

In the case of `COc1c(F)cc(Cn2ncc(NC(=O)Cc3ccc(C(C)(C)C)cc3)n2)cc1F` [Example 79, 2-(4-tert-Butyl-phenyl)-N-[2-(3,5-difluoro-4-methoxy-benzyl)-2H-[1,2,3]triazol-4-yl]-acetamide], the half-maximal inhibitory concentration (IC50) was found to be 46 nM.

On to `COc1c(F)cc(Cn2ncc(NC(=O)Cc3ccc4c(ccn4C)c3)n2)cc1F` [Example 77, N-[2-(3,5-Difluoro-4-methoxy-benzyl)-2H-[1,2,3]triazol-4-yl]-2-(1-methyl-1H-indol-5-yl)-acetamide], for which the half-inhibitory concentration (IC50) amounted to 13 nM.

With `O=C(Cc1ccc(N2CCC(F)(F)C2)nc1)Nc1cnn(Cc2ccc(OC(F)F)c(F)c2)n1` [Example 182, N-[2-(4-Difluoromethoxy-3-fluoro-benzyl)-2H-[1,2,3]triazol-4-yl]-2-[6-(3,3-difluoro-pyrrolidin-1-yl)-pyridin-3-yl]-acetamide], the 50% inhibitory concentration (IC50) stood at 13 nM.

Turning to `COc1c(F)cc(Cn2ncc(NC(=O)Cc3ccc(C4(OC)COC4)cc3)n2)cc1F` [Example 143, N-[2-(3,5-Difluoro-4-methoxy-benzyl)-2H-[1,2,3]triazol-4-yl]-2-[4-(3-methoxy-oxetan-3-yl)-phenyl]-acetamide], the IC50 stood at 76 nM.

For `CC(C)c1ccc(CC(=O)Nc2cnn(Cc3ccc(C#N)cc3)n2)cc1` [Example 26, N-[2-(4-Cyano-benzyl)-2H-[1,2,3]triazol-4-yl]-2-(4-isopropyl-phenyl)-acetamide], the IC50 is 19 nM.

Regarding `CC1(c2ccc(CC(=O)Nc3cnn(Cc4ccc(C#N)c(F)c4)n3)cc2)COC1` [Example 72, N-[2-(4-Cyano-3-fluoro-benzyl)-2H-[1,2,3]triazol-4-yl]-2-[4-(3-methyl-oxetan-3-yl)-phenyl]-acetamide], the half-maximal inhibitory concentration (IC50) is 74 nM.

For `N#Cc1ccc(Cn2ncc(NC(=O)Cc3ccc(N4CCC(F)(F)C4)nc3)n2)cc1` [Example 97, N-[2-(4-Cyano-benzyl)-2H-[1,2,3]triazol-4-yl]-2-[6-(3,3-difluoro-pyrrolidin-1-yl)-pyridin-3-yl]-acetamide], the concentration for half-maximal inhibition (IC50) is 36 nM.

Consider `CCOc1ccc(Cn2ncc(NC(=O)Cc3ccc(N4CCCC4)nc3)n2)cc1` [Example 45, N-[2-(4-Ethoxy-benzyl)-2H-[1,2,3]triazol-4-yl]-2-(6-pyrrolidin-1-yl-pyridin-3-yl)-acetamide], for which the IC50 came to 32 nM.

Take `CC(C)(C)c1ccc(CC(=O)Nc2cnn(Cc3ccc(OC(F)F)c(F)c3)n2)cc1` [Example 178, 2-(4-tert-Butyl-phenyl)-N-[2-(4-difluoromethoxy-3-fluoro-benzyl)-2H-[1,2,3]triazol-4-yl]-acetamide]: the half-inhibitory concentration (IC50) was determined as 49 nM.

Turning to `CC1(c2ccc(CC(=O)Nc3cnn(Cc4ccc(F)c(F)c4)n3)cc2)COC1` [Example 22, N-[2-(3,4-Difluoro-benzyl)-2H-[1,2,3]triazol-4-yl]-2-[4-(3-methyl-oxetan-3-yl)-phenyl]-acetamide], the IC50 is 15 nM.

On to `Cn1ncc2cc(CC(=O)Nc3cnn(Cc4ccc(C#N)cc4)n3)ccc21` [Example 234, N-[2-(4-Cyano-benzyl)-2H-[1,2,3]triazol-4-yl]-2-(1-methyl-1H-indazol-5-yl)-acetamide], for which the IC50 amounted to 76 nM.

For the compound `N#Cc1ccc(Cn2ncc(NC(=O)Cc3ccc(C(F)(F)F)cc3)n2)cc1F` [Example 159, N-[2-(4-Cyano-3-fluoro-benzyl)-2H-[1,2,3]triazol-4-yl]-2-(4-trifluoromethyl-phenyl)-acetamide], the half-maximal inhibitory concentration (IC50) came to 61 nM.

`Cc1cc(Cn2ncc(NC(=O)Cc3ccc(C4(F)COC4)cc3)n2)ccc1C#N` [Example 235, N-[2-(4-Cyano-3-methyl-benzyl)-2H-[1,2,3]triazol-4-yl]-2-[4-(3-fluoro-oxetan-3-yl)-phenyl]-acetamide]: the concentration for half-maximal inhibition (IC50) was found to be 92 nM.

Take `Cc1cc(CC(=O)Nc2cnn(Cc3ccc(C#N)cn3)n2)ccc1OCC(F)(F)F` [Example 242, N-[2-(5-Cyano-pyridin-2-ylmethyl)-2H-[1,2,3]triazol-4-yl]-2-[3-methyl-4-(2,2,2-trifluoro-ethoxy)-phenyl]-acetamide]: the concentration for half-maximal inhibition (IC50) came to 54 nM.

On to `COc1ccc(Cn2ncc(NC(=O)Cc3ccc(OC4CC(F)(F)C4)cc3)n2)cc1C#N` [Example 223, N-[2-(3-Cyano-4-methoxy-benzyl)-2H-[1,2,3]triazol-4-yl]-2-[4-(3,3-difluoro-cyclobutoxy)-phenyl]-acetamide], for which the 50% inhibitory concentration (IC50) was found to be 120 nM.

As for `COc1ccc(Cn2ncc(NC(=O)Cc3ccc(C4(C)COC4)cc3)n2)cc1` [Example 60, N-[2-(4-Methoxy-benzyl)-2H-[1,2,3]triazol-4-yl]-2-[4-(3-methyl-oxetan-3-yl)-phenyl]-acetamide], the IC50 stood at 120 nM.

Consider `COc1ccc(Cn2ncc(NC(=O)Cc3ccc(C(C)(C)C)cc3)n2)cc1C#N` [Example 202, 2-(4-tert-Butyl-phenyl)-N-[2-(3-cyano-4-methoxy-benzyl)-2H-[1,2,3]triazol-4-yl]-acetamide], for which the half-inhibitory concentration (IC50) worked out at 320 nM.

Regarding `CN(c1ccc(CC(=O)Nc2cnn(Cc3ccc(F)c(F)c3)n2)cn1)C1CC1` [Example 11], the IC50 came out at 32 nM.

Regarding `N#Cc1ccc(Cn2ncc(NC(=O)Cc3ccc(N4CCCC4)nc3)n2)cc1` [Example 98, N-[2-(4-Cyano-benzyl)-2H-[1,2,3]triazol-4-yl]-2-(6-pyrrolidin-1-yl-pyridin-3-yl)-acetamide], the IC50 came out at 83 nM.

As for `COc1ccc(Cn2ncc(NC(=O)Cc3ccc(N4CCCC4)nc3)n2)cc1` [Example 62, N-[2-(4-Methoxy-benzyl)-2H-[1,2,3]triazol-4-yl]-2-(6-pyrrolidin-1-yl-pyridin-3-yl)-acetamide], the IC50 came out at 120 nM.

For `Cc1cc(CC(=O)Nc2cnn(Cc3ccc(C#N)c(F)c3)n2)ccc1OCC(F)(F)F` [Example 199, N-[2-(4-Cyano-3-fluoro-benzyl)-2H-[1,2,3]triazol-4-yl]-2-[3-methyl-4-(2,2,2-trifluoro-ethoxy)-phenyl]-acetamide], the IC50 was found to be 17 nM.

As to `Cc1cc(Cn2ncc(NC(=O)Cc3ccc4c(c3)c(C)nn4C)n2)ccc1C#N` [Example 169, N-[2-(4-Cyano-3-methyl-benzyl)-2H-[1,2,3]triazol-4-yl]-2-(1,3-dimethyl-1H-indazol-5-yl)-acetamide], the 50% inhibitory concentration (IC50) was 96 nM.

Consider `O=C(Cc1ccc(C2(C(F)(F)F)CC2)cc1)Nc1cnn(Cc2ccc(OC(F)(F)F)c(F)c2)n1` [Example 188, N-[2-(3-Fluoro-4-trifluoromethoxy-benzyl)-2H-[1,2,3]triazol-4-yl]-2-[4-(1-trifluoromethyl-cyclopropyl)-phenyl]-acetamide], for which the half-inhibitory concentration (IC50) was 96 nM.
